Results reported in patent publication US10239839B2, “Compounds and formulations suitable for radical scavenging” (Solenne BV, priority 2006, dated 2019).
Entries after “also recorded” stand apart in the source; their conditions may differ. Blank lines part the entries; values can stand above or below the compound they belong to.

Tests used:
[1] = Stability of solutions exposed to light and air; format: physicochemical; settings: dissolved in grape seed oil, darker than parent oil, up to a year
Source text: For example, it is known in the art that a dilute solution of C60 in toluene exposed to light and air will undergo approximately 10% or more degradation and loss of the C60 due to epoxidation and subsequent breakdown of the fullerene cage resulting from singlet oxygen generated via photoexcitation of the C60. This can be seen even visually since the decomposed C60 forms a blackish product which settles out of solution.

[2] = Percutaneous absorption study; format: in vitro ADME; settings: 0.3% (wt.) in grape seed oil
Experimental: [d] A percutaneous absorption study was conducted with 6 fresh viable skin samples from one donor, where 20 times recommended usage level (recommended usage level is 6-8 drops on the face) of a 0.3% (wt.) formulation of HG2-V2 in grape seed oil was used. Analysis by extraction of receptor fluid with toluene and analysis with HPLC-MS (using Buckyprep analytical column) was performed.

[3] = Photo-oxidation of adamantylideneadamantane, UV light source; settings: compared with α-tocopherol
Experimental: [e] Two beakers were irradiated simultaneously with a UV light source (Philips HB172, fitted with 4 Philips Cleo 15 W luminescent tubes; UV-type 3). Beaker 1 contained a mixture of 301.0 mg of adamantylideneadamantane and 24.9 mg of α-tocopherol (Aldrich, >97%) in 100 mL of chlorobenzene. This solution was placed in a 250 mL beaker, which was wrapped with paper and Al-foil to prevent light going through the side of the beaker. The solution was stirred magnetically and irradiated 7 hours with a UV lamp (Philips HB172, fitted with 4 Philips Cleo 15 W luminescent tubes; UV-type 3), which was mounted horizontally directly above the beakers. The reaction mixture was concentrated in vacuo and the resulting solid material was analyzed by ^1H NMR spectroscopy as described above. […] The ratio of the integrals of unreacted adamantylideneadamantane (at 2.9 ppm) to adamantylideneadamantane peroxide was 90:10.
Beaker 2 contained a mixture of 301.2 mg of adamantylideneadamantane and 25.0 mg of HG2-V2 in 100 mL of chlorobenzene. This solution was placed in a 250 mL beaker, which was wrapped with paper and Al-foil to prevent light going through the side of the beaker. […] The reaction mixture was concentrated in vacuo and the resulting solid material was analyzed by ^1H NMR spectroscopy as described above. […]

erythema = experiment: Erythemal response to 3×MED full spectrum UV light after occluded patches; format: in vivo, human; settings: 0.3% wt. in grape seed oil, 3×MED 24 hours after treatment, 25 subjects
Experimental: [c] 25 human subjects, for which the minimal erythemal dose (MED) of full spectrum UV light (Solar Light Company's 601-300 Multiport Simulator, emitting light of a Xenon-Shortarc Lamp) had been determined, were treated with 6 occluded patches (on the back) with a formulation of HG2-V2 (0.3% wt.) in grape seed oil. 24 hours after patch treatment, the regions of application were exposed to 3×MED of the same light source. […] This provides evidence that the formulation provided an anti-erythemic effect, since erythema scores for 3×MED should range between 1-3.

[4] = UV-Vis absorbance / optical density; format: physicochemical
Experimental: All of these oils show an absorbance (A) at λ=570 nm of A570 less than 0.05 when measuring the neat oil against water, using 1 cm cuvettes as is general practice. The above absorbance profiles were measured by placing the neat oil in the 1 cm path length spectrometer cuvette. […] Olive oil typically has a darker appearance (and is thus more optically dense) than the other oils, and this can be seen in the absorption profile.
In many instances, the concentration of fullerene, fullerene derivative, or fullerene-derived ketolactam desired due to considerations of optimal antioxidant efficacy is higher than can be conveniently measured by standard UV/vis spectroscopy. For concentrated solutions, dilution may be necessary to obtain a proper spectrum in the so-called visible area (λ=400-700 nm). If such concentrated solutions are measured without dilution, A570 may exceed a limit to obtain an accurate measurement, or may even exceed the maximum value that can be measured by the spectrometer. As an example, the spectrum of a concentrated solution of HG2-V2 in grapeseed oil (9.2 mg HG2-V2 dissolved in 3 mL), diluted×10 (v/v) with toluene, is shown in FIG. 8. Here, A570 is 0.24, meaning that without dilution it would give approximately A=2.4. Common UV-Vis spectrometers can usually measure up to A≈5, meaning that for this solution a large part of the spectrum (λ<510 nm) could not have been accurately measured without dilution.
400 mg HG2-V2 was added to 100 g of commercially available liquid grape seed oil and stirred with mechanical stirring for 4 hours at 25 deg. C. The HG2-V2 dissolved to give a clear, dark, amber colored solution of 0.4% (wt.) active in a simple solution. The optical density measured for this solution was over 2 AU/cm, and after 10/1 dilution with toluene was over 0.2.

[5] = natural sunlight, chlorobenzene
Experimental: [f] Two beakers were irradiated simultaneously by natural sunlight. Beaker 2 contained a solution of 300.5 mg of adad and 17.9 mg of PCBM in 100 mL of chlorobenzene. This solution was placed in a 250 mL beaker, wrapped with paper and Al-foil to prevent light going through the side of the beaker. […] The resulting solution was put in a brown-glass bottle for transport. The solvent was removed in vacuo and the resulting solid material was analyzed by ^1H NMR spectroscopy as described above.
This solution was placed in a 250 mL beaker, wrapped with paper and Al-foil to prevent light going through the side of the beaker. […] The resulting solution was placed in a brown-glass bottle for transport. Approximately 10 mL of the reaction mixture was filtered and put aside. The remaining amount was concentrated in vacuo and the resulting solid material was analyzed by ^1H NMR spectroscopy as described above.
This solution gave an absorbance of A=0.14 at 646 nm (against neat chlorobenzene).

[6] = Tagmatarchis et al.; Hauke et al.; cited from earlier work
[7] = Photo-oxidation of adamantylideneadamantane (ad=ad) to monitor ^1O2 formation, sodium lamp; settings: bubbling air
Source text: Excited fullerene, triplet+O2→fullerene+singlet oxygen (^1O2) The ^1O2 thus generated can react with a fullerene, giving an oxidized fullerene, or with other molecules that can react with ^1O2. One such molecule is adamantylideneadamantane (ad=ad), which is known to react with ^1O2, giving a stable 1,2-dioxetane, adamantylideneadamantane peroxide, as the product (J. H. Wieringa et al., Tetrahedron Letters 1972, 2, 169). This reaction is depicted in FIG. 11. This oxidation of ad=ad can be used to monitor the formation of ^1O2 by fullerenes or fullerene derivatives.
In a first set of experiments, Phenyl-C61-Butyric-Acid-Methyl-Ester (PCBM,) and HG2-V1 were compared. […] After reaction overnight, the solvent was removed in vacuo and the residual material analyzed by ^1H NMR. […]
In a second set of experiments, the above reaction was done at a high concentration (20 mg/mL) of ad=ad, this time using CCl4 as the solvent. […] Thus, samples from the reaction can be directly analyzed by ^1H NMR, when diluted with, e.g., CDCl3. […]
Samples of 150-200 μL were taken from the reaction and diluted with ˜400 μL of CDCl3. […] Thus, the formation of adamantylideneadamantane peroxide was monitored over time, by following the appearance of the signal at 2.65 ppm. […]

decomposition on exposure to light and air [1]: reduced amount of decomposition products
percutaneous absorption ([2]; 20 times recommended usage level, receptor fluid 8 hr and 24 hr): less than 0.004%
A570 ([4]; 9.2 mg in 3 mL grapeseed oil, diluted ×10 (v/v) with toluene): 0.24
A570 without dilution ([4]; 9.2 mg in 3 mL grapeseed oil, extrapolated): ~2.4
optical density ([4]; 0.4% (wt.) in grape seed oil): over 2 AU/cm
optical density after 10/1 dilution with toluene ([4]; 0.4% (wt.) in grape seed oil): over 0.2
Compound: 2a-Aza-1,2(2a)-homo-1,9-seco[5,6]fullerene-C60—Ih-1,9-dione,2a-[[4-docosyloxy)-3-methoxyphenyl]methyl] [HG2-V2]
content in receptor fluid (HPLC-MS) ([2]; 8 hr and 24 hr collection points): no HG2-V2 at or above analytical detection limit
net generation of ^1O2 under UV irradiation, equal weight percentage [3]: less for HG2-V2 than α-tocopherol
average erythemic response on the erythema response scale (1 = first sign of erythema) (erythema): 0.77

average optical absorption between 400 nm and 700 nm compared to PCBM [4]: about 10 times
Compound: CN(C)c1ccc2nc3ccc(=[N+](C)C)cc-3sc2c1 [MB, methylene blue]
amount of ^1O2 compared to PCBM on an equal absorption and equimolar basis [5]: 25 times
net generation of ^1O2 compared to PCBM on an equimolar basis [5]: 250 times

Compound: (C59N)2
^1O2 quantum yields (in words) [6]: reduced ^1O2 quantum yields

Compound: C59NH
^1O2 quantum yields (in words) [6]: reduced ^1O2 quantum yields

Compound: Phenyl-C61-Butyric-Acid-Methyl-Ester [PCBM]
production of adamantylideneadamantane peroxide over time (ratio of peak at 2.65 ppm and signal at 2.88 ppm of ad=ad) ([7]; CCl4, ad=ad 20 mg/mL, 150 W sodium lamp, equal molarity): much faster
amount of adamantylideneadamantane peroxide formed (^1H NMR signal at 2.65 ppm) ([7]; chlorobenzene, ad=ad 1.5 mg/mL, 400 W sodium lamp, 16.5-17 h): much larger than that formed when using HG2-V1; also recorded: substantial amount
